In patent US12616760B2, “Synthetic cyclic peptide mimetics” (priority 2020, dated 2026):
Where two headings read alike, the source gives them in different places. Square brackets hold non-standard residues; d marks the D form. Peptide text beside a SMILES is read from it. Nle = CCCC[C@H](N)C(=O)O; azaGly = NNC(=O)O

Experiments:
Aβ40 = molecular target: T1, Aβ40 (Homo sapiens, UniProt P05067); test: Thioflavin T (ThT) fluorescence assay of Aβ40 aggregation; type: biochemical; details: for Inhibition of amyloidogenic activity(%) / Inhibition of amyloidogenic activity: ThT; for Inhibition of amyloidogenic activity: Table 4
T1 construct: The extent of Aβ40 aggregation in the presence of increasing concentrations of azacyclopeptides
T1 sequence (P05067 672-711 limits assumed): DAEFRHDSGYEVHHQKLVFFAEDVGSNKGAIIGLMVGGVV
Method: Amyloid generation can be identified and quantified using the thioflavin T (ThT) fluorescence dye assay. […] Agents that bind and inhibit aggregation of Aβ diminish ThT fluorescence relative to untreated Aβ. The extent of Aβ40 aggregation in the presence of increasing concentrations of azacyclopeptides and azasulfurylcyclopeptide 55 was evaluated by the ThT assay. Fluorescence of Aβ40 that was aged for 48 h was used as control, defined as 0% anti-amyloidogenic activity, and compared with fluorescence in the presence of cyclic peptide mimics at increasing concentrations to measure anti-amyloidogenic activity.

[1] = tested on: rat pheochromocytoma PC12 cells; type: cell-based; design: Cells survival (%): concentration or dose not given beside the values; details: for Cells survival (%): PC12, MTT
Method: Considering that self-assembly and aggregation of Aβ are key components of AD pathogenesis, the ability of azaGly-cyclopeptides 2-7 to reduce Aβ-induced toxicity was next tested in rat pheochromocytoma PC12 cells. Cells were incubated for 24 h with Aβ40 (10 μM) that had been aged for 48 h in the presence and absence of increasing concentrations of the azacyclopeptides. Cell viability was assessed using the 3-(4,5-dimethylthiazol-2-yl)-2,5-diphenyltetrazolium bromide (MTT) survival assay (Table 2). In this assay, viable cells reduce permeable MTT by active metabolism to produce a purple-colored formazan product with absorbance maximum near 570 nm. Dead cells lose the ability to convert MTT into formazan. The quantity of formazan is therefore directly proportional to the number of viable cells and measurable over time by recording changes in absorbance using a spectrophotometer. Neurons are susceptible to the lethal effects of misfolded proteins which are likely to aggregate at increased concentration. The pheochromocytoma (PC12) cell line is commonly used in in vitro studies to examine neuronal variation and neurotoxicity as a model of neurodegenerative disease.

[2] = Aβ:peptide 1:1, 10 μM soluble Aβ40
[3] = Aβ:peptide 1:5, 10 μM soluble Aβ40
[4] = Aβ:peptide 1:10, 10 μM soluble Aβ40
[5] = Aβ:peptide 1:0.1, 10 μM soluble Aβ40

Row | Compound | Inhibition of amyloidogenic activity (Aβ40; Aβ:peptide 1:1) [%] | Inhibition of amyloidogenic activity (Aβ40; Aβ:peptide 1:5) [%] | Inhibition of amyloidogenic activity (Aβ40; Aβ:peptide 1:10) [%] | Inhibition of amyloidogenic activity(%) (Aβ40; Table 5, Aβ:peptide 1:1) | Inhibition of amyloidogenic activity(%) (Aβ40; Table 5, Aβ:peptide 1:5) | Inhibition of amyloidogenic activity(%) (Aβ40; Table 5, Aβ:peptide 1:10) | Cells survival (%) ([1]; Table 5, Aβ:peptide 1:1) | Cells survival (%) ([1]; Table 5, Aβ:peptide 1:5) | Cells survival (%) ([1]; Table 4, Aβ:peptide 1:1) | Cells survival (%) ([1]; Table 4, Aβ:peptide 1:5) | other results
1 | CCCC[C@@H]1NC(=O)[C@@H](CC(C)C)NC(=O)[C@H](CCCCN)NC(=O)[C@@H](CO)NC(=O)[C@H](Cc2c[nH]cn2)NC(=O)[C@@H](Cc2c[nH]c3ccccc23)NC1=O [Compound 1, Cyclo-L-lysine-D-leucine-L-norleucine-D-tryptophan-L-histidine-D-serine, reference compound] (cyclo(K[dL][Nle][dW]H[dS])) | 44.6 | 84.7 | 92.8 | 44.6 | 84.7 | 92.8 | – | – | – | – | Inhibition of amyloidogenic activity(%) (Aβ40; [2]): 44.6%; Inhibition of amyloidogenic activity(%) (Aβ40; [3]): 84.7%; Inhibition of amyloidogenic activity(%) (Aβ40; [4]): 92.8%
2 | CCCC[C@@H]1NC(=O)[C@@H](CC(C)C)NC(=O)NNC(=O)[C@@H](CO)NC(=O)[C@H](Cc2c[nH]cn2)NC(=O)[C@@H](Cc2c[nH]c3ccccc23)NC1=O [Compound 2, c(D-Leu-L-Nle-D-Trp-L-His-D-Ser-Gly*)] (cyclo([azaGly][dL][Nle][dW]H[dS])) | – | – | – | – | – | – | – | – | – | – | Inhibition of amyloidogenic activity(%) (Aβ40; [5]): 63.9%; Inhibition of amyloidogenic activity(%) (Aβ40; [2]): 76.7%; effect on lag phase and ThT fluorescence (Aβ40; above stoichiometric concentrations): promoted significantly fibrilization of Aβ shortening the lag-phase and increasing ThT fluorescence; effect on lag phase and ThT fluorescence (Aβ40; at and below stoichiometric concentrations): prolonged dramatically the lag-phase and reduced ThT fluorescence; cell survival ([1]; 24 h): 87%
3 | CCCC[C@@H]1NC(=O)[C@@H](CC(C)C)NC(=O)[C@H](CCCCN)NC(=O)[C@@H](CO)NC(=O)NNC(=O)[C@@H](Cc2c[nH]c3ccccc23)NC1=O [Compound 4, c(D-Leu-L-Nle-D-Trp-Gly*-D-Ser-L-Lys)] (cyclo(K[dL][Nle][dW][azaGly][dS])) | – | – | – | – | – | – | – | – | – | – | Inhibition of amyloidogenic activity(%) (Aβ40; [2]): 50.2%; Inhibition of amyloidogenic activity(%) (Aβ40; [3]): 75%; Inhibition of amyloidogenic activity(%) (Aβ40; [4]): 68.8%
4 | CCCC[C@@H]1NC(=O)[C@@H](CC(C)C)NC(=O)[C@H](CCCCN)NC(=O)[C@@H](CO)NC(=O)[C@H](Cc2c[nH]cn2)NC(=O)NNC1=O [Compound 5, c(D-Leu-L-Nle-Gly*-L-His-D-Ser-L-Lys)] (cyclo(K[dL][Nle][azaGly]H[dS])) | – | – | – | – | – | – | – | – | – | – | Inhibition of amyloidogenic activity(%) (Aβ40; [5]): 55.3%; Inhibition of amyloidogenic activity(%) (Aβ40; [2]): 89.8%; Inhibition of amyloidogenic activity(%) (Aβ40; [3]): 91.1%; Inhibition of amyloidogenic activity(%) (Aβ40; [4]): 90.8%; effect on lag phase and ThT fluorescence (Aβ40; incubation with Aβ): dramatically prolonged the lag phase and reduced the ThT fluorescence
5 | CC(C)C[C@H]1NC(=O)[C@H](CCCCN)NC(=O)[C@@H](CO)NC(=O)[C@H](Cc2c[nH]cn2)NC(=O)[C@@H](Cc2c[nH]c3ccccc23)NC(=O)NNC1=O [Compound 6, c(D-Leu-Gly*-D-Trp-L-His-D-Ser-L-Lys)] (cyclo(K[dL][azaGly][dW]H[dS])) | – | – | – | – | – | – | – | – | – | – | Inhibition of amyloidogenic activity(%) (Aβ40; [3]): 80.1%; Inhibition of amyloidogenic activity(%) (Aβ40; [4]): 81.8%; effect on lag phase and ThT fluorescence (Aβ40; incubation with Aβ): dramatically prolonged the lag phase and reduced the ThT fluorescence
6 | CCCC[C@@H]1NC(=O)NNC(=O)[C@H](CCCCN)NC(=O)[C@@H](CO)NC(=O)[C@H](Cc2c[nH]cn2)NC(=O)[C@@H](Cc2c[nH]c3ccccc23)NC1=O [Compound 7, c(Gly*-L-Nle-D-Trp-L-His-D-Ser-L-Lys)] (cyclo(K[azaGly][Nle][dW]H[dS])) | – | – | – | – | – | – | – | – | – | – | Inhibition of amyloidogenic activity(%) (Aβ40; [3]): 78.8%; Inhibition of amyloidogenic activity(%) (Aβ40; [4]): 80.5%; effect on lag phase and ThT fluorescence (Aβ40; incubation with Aβ): dramatically prolonged the lag phase and reduced the ThT fluorescence
7 | c(4-Phe*-L-Nlc-D-Trp-L-His-D-Ser-L-Lys) [Compound 20] | – | – | – | 1.6 | 48.4 | 68.4 | 73.0 | 84.9 | – | – | –
8 | c(D-Leu-L-Nle-D-Trp-D-His-IPrTyr*-L-Lys) [Compound 11] | – | – | – | 3.5 | 54.7 | 54.2 | 72.4 | 74.3 | – | – | –
9 | c(D-Leu-L-Nle-D-Trp-L-His-D-Ser-Lys*) [Compound 8] | 54.4 | 77.8 | 80.9 | – | – | – | – | – | 80.1 | 91.3 | –
10 | c(D-Leu-L-Nle-D-Trp-L-His-Gly^-L-Lys) [Compound 55] | – | – | – | – | – | – | 76.9 | 106 | – | – | –
11 | c(D-Leu-L-Nle-D-Trp-L-His-Hse*-L-Lys) [Compound 9] | 8.3 | 77.9 | 77.2 | – | – | – | – | – | 82.8 | 97.9 | –
12 | c(D-Leu-L-Nle-D-Trp-L-His-IPrTyr*-L-Lys) [Compound 10] | – | – | – | 8.2 | 85.2 | 86.2 | 75.4 | 83.4 | – | – | –
13 | c(D-Leu-L-Nle-D-Trp-Phe*-D-Ser-L-Lys) [Compound 12] | – | – | – | 54.4 | 77.7 | 80.9 | 70.1 | 87.9 | – | – | –
14 | c(D-Leu-L-Nle-D-Trp-Pra*-D-Ser-L-Lys) [Compound 14] | – | – | – | 76.9 | 81.2 | 81.4 | 71.7 | 83.5 | – | – | –
15 | c(D-Leu-L-Nle-D-Trp-Tal*-D-Ser-L-Lys) [Compound 13] | 58.0 | 72.6 | 78.4 | – | – | – | – | – | 70.8 | 96.3 | –
16 | c(D-Leu-L-Nle-Itr*-L-His-D-Ser-L-Lys) [Compound 15] | 78.0 | 81.6 | 86.1 | – | – | – | – | – | 78.8 | 71.7 | –
17 | c(D-Leu-Nle*-D-Trp-L-His-D-Ser-L-Lys) [Compound 16] | 72.9 | 76.4 | 85.1 | – | – | – | – | – | 86.3 | 94.5 | –
18 | c(D-Leu-Phe*-D-Trp-L-His-D-Ser-L-Lys) [Compound 17] | – | – | – | 3.5 | 36.9 | 79.8 | 61.8 | 69.5 | – | – | –
19 | c(Leu*-L-Nlc-D-Trp-L-His-D-Ser-L-Lys) [Compound 18] | 15.4 | 17.1 | 37.5 | – | – | – | – | – | 72.8 | 76.3 | –
20 | c(Phe*-L-Nle-D-Trp-L-His-D-Ser-L-Lys) [Compound 19] | – | – | – | 12.5 | 54.5 | 61.2 | 73.0 | 74.5 | – | – | –
